Measured values as given in US20250213603A1, “PHARMACEUTICAL COMPOSITION FOR TREATING CANCER” (SAGA UNIVERSITY, priority 2021, published 2025).

What was measured:
BV173 [1] = test: Cell proliferation inhibition, modified MTT assay (Cell Counting Kit-8); type: cell-based; conditions: BV173, incubation for 72 hours, average±SD of 3 independent experiments
Method: (§1) The proliferation inhibitory action in leukemia cell lines was evaluated using a modified dimethyl-thiazole-diphenyl-tetrazolium (MTT) assay as follows.
(§2) The hepatocyte line and leukemia cell lines (K562, BV173, Ba/F3 p190, Ba/F3 p210, MYL-R, K562-IMR, and KBM5-STI) were used in this example. The FA-HP-β-CyD synthesized in Example 1 was used.
(§3) The cell viability was evaluated using the trypan blue dye exclusion method. Cell proliferation was evaluated using a Cell Counting Kit-8 (Dojindo, Japan), which is an MTT assay. 2×10^4 of each cell was seeded with 100 μL RPMI1640 medium (Sigma-Aldrich, USA) per well to a flatbottom 96-well plate (Greiner Labortechnik, Hamburg, Germany), and incubation for 72 hours was carried out with exposure to HP-β-CyD and FA-HP-β-CyD at different concentrations (0 mM (control: CT), 0.05 mM, 0.1 mM, 0.25 mM, 0.5 mM, and 1 mM).

Ba/F3 P190 = test: as above; type: cell-based; conditions: Ba/F3 P190, incubation for 72 hours, average±SD of 3 independent experiments
Method: as §1, §2, §3

Ba/F3 P210 = test: as above; type: cell-based; conditions: Ba/F3 P210, incubation for 72 hours, average±SD of 3 independent experiments
Method: as §1, §2, §3

K562-IMR = test: as above; type: cell-based; conditions: incubation for 72 hours, average±SD of 3 independent experiments
Method: as §1, §2, §3

K562 [2] = test: as above; type: cell-based; conditions: K562, incubation for 72 hours, average±SD of 3 independent experiments
Method: as §1, §2, §3

KBM5-STI = test: as above; type: cell-based; conditions: incubation for 72 hours, average±SD of 3 independent experiments
Method: as §1, §2, §3

MYL-R = test: as above; type: cell-based; conditions: incubation for 72 hours, average±SD of 3 independent experiments
Method: as §1, §2, §3

hepatocyte = test: as above; type: cell-based; conditions: hepatocyte line, incubation for 72 hours, average±SD of 3 independent experiments
Method: as §1, §2, §3

A549 = test: Proliferation inhibitory action on low folate receptor-expressing cells (MTT assay); type: cell-based, human; conditions: A549, 2.5-10 mM, 72 hours (FIG. 3)
Method: The proliferation inhibitory action on A549, a low folate receptor-expressing cell, was evaluated as follows.
A human non-small cell lung cancer cell line (A549) was used in this example. The FA-HP-β-CyD synthesized in Example 1 was used.
For cell proliferation, 2×10^4 cells of the […] were seeded with 100 μL DMEM medium (Sigma-Aldrich, USA) per well to a flatbottom 96-well plate (Greiner Labortechnik, Hamburg, Germany), and incubation for 72 hours was carried out with exposure to HP-β-CyD and FA-HP-β-CyD at different concentrations (0 mM (control: CT), 2.5 mM, 5 mM, 7.5 mM, and 10 mM). Evaluation was then carried out using a dimethyl-thiazole-diphenyl-tetrazolium (MTT) assay (Nacalai Tesque, Japan).

BV173 [3] = test: Cellular uptake of TRITC-labelled CyD, confocal microscopy; type: cell-based; conditions: confocal microscopy (FIG. 6)
Method: The cellular uptake of FA-HP-β-CyD was evaluated as follows.
A leukemia cell line (BV173) was used in this example. The FA-HP-β-CyD synthesized in Example 1 was used.
10 mg HP-β-CyD or FA-HP-β-CyD and 1 mg of TRITC were dissolved in 400 μL of dimethyl sulfoxide (DMSO) with stirring for 24 hours and the solution was then gradually poured into acetone. A precipitate was obtained and was washed with water. This was freeze-dried to prepare TRITC-HP-β-CyD and TRITC-FA-HP-β-CyD.
The cells were then cultured at a cell density of 4×10e5 per well on a 6-well plate and were incubated with […], TRITC-HP-β-CyD, FA-HP-β-CyD, or HP-βCyD at different concentrations. A Zeiss LSM880 confocal microscope was used to observe the cells. Imaris (Zeiss) fluorescent image analysis software was used for analysis.
The Control refers to incubation at the same time as the other exposure groups, but without exposure to an agent. Cell localization was stained by DAPI and the cell membrane was stained with PlasMen Bright Green, and the cellular uptake of TRITC-FA-HP-β-CyD was evaluated using confocal microscopy.

BV173 [4] = test: Effect of autophagy inhibition on the cell proliferation inhibitory effect; type: cell-based; conditions: 5 mM FA-HP-β-CyD or 15 mM HP-β-CyD, chloroquine, bafilomycin A1 or LY294002 (FIG. 8)
Method: (§4) The effect of autophagy inhibition on the cell proliferation inhibitory effect was evaluated as follows.
(§5) Leukemia cell lines (K562 and BV173) were used in this example. The FA-HP-β-CyD synthesized in Example 1 was used.
(§6) 2×10^5 of each cell with 100 μL RPMI1640 medium (Sigma-Aldrich, USA) was seeded per well to a flatbottom 96-well plate (Greiner Labortechnik, Hamburg, Germany), and treatment was carried out for 2 hours at 37° C. with 5 mM FA-HP-β-CyD and 15 mM HP-β-CyD. Pretreatment was then carried out for 24 hours with the autophagy inhibitors chloroquine (20 μM) (FUJIFILM Wako Pure Chemical Corporation), bafilomycin A1 (1 nM) (Funakoshi), or LY294002 (50 μM) (FUJIFILM Wako Pure Chemical Corporation). Cell proliferation was then evaluated using a Cell Counting Kit-8 (Dojindo, Japan), which is a modified dimethyl-thiazole-diphenyl-tetrazolium (MTT) assay.
(§7) Here, the “CT” in FIG. 8 was evaluated as follows. Thus, 2×10^5 of each cell with 100 μL RPMI1640 medium was seeded per well to a flatbottom 96-well plate and culture was carried out for 2 hours+24 hours as in the exposure groups, but without exposure to the agent or autophagy inhibitor, and this was used as the CT. This CT was compared with the exposure groups.
(§8) Significant difference was determined as follows. That is, the data were analyzed using a two-sided Student's t-test without a comparison table. A value of P<0.05 was considered to indicate a significant difference.

K562 [5] = test: as above; type: cell-based; conditions: 5 mM FA-HP-β-CyD or 15 mM HP-β-CyD, chloroquine, bafilomycin A1 or LY294002 (FIG. 8)
Method: as §4, §5, §6, §7, §8

[6] = tested on: BV173 cells (leukemia cells); test: Ventricular invasion mouse model (leukemic invasion of the central nervous system); type: in vivo, BRJ mice; conditions: HP-β-CyD 30 mg/kg
Method: Here, the effect of HP-β-CyD and FA-HP-β-CyD on leukemic central nervous system invasion was test by constructing a mouse model.
BRJ mice (female) were anesthetized (intraperitoneal administration (IP) of 100 μL of a triple anesthetic of medetomidine hydrochloride (0.75 mg/kg), mitazolam (4 mg/kg), and butorphanol tartrate (5 mg/kg)), and intrathecal transplantation was carried out, through the right coronal suture at a point 1 mm to the right of the center line defined by the sagittal suture, with a polyethylene stop tube-equipped microsyringe designed to inject BV173 cells (leukemia cells) precisely to a depth of 3 mm using a Hamilton syringe LT type needle tip style pst-3 and 25 gauge.
The FA-HP-β-CyD synthesized in Example 1 was used in this example.
The doses were set at 30 mg/kg for HP-β-CyD and 3 mg/kg for FA-HP-β-CyD by referring to the dose of HP-β-CyD for a mouse model of the hereditary lipid storage disease Niemann-Pick disease type C (NPC) (Int. J. Mol. Sci. 2021, 22, 452. https://doi.org/10.3390/ijms22010452).
as §8

Substance: 2-hydroxypropyl-β-cyclodextrin [HP-β-CyD, reference compound]
- IC50 (BV173 [1]): 3.46 ± 0.33 mM
- IC50 (Ba/F3 P190): 8.04 ± 0.71 mM
- IC50 (Ba/F3 P210): 9.21 ± 0.054 mM
- IC50 (K562-IMR): 3.51 ± 0.12 mM
- IC50 (K562 [2]): 5.65 ± 0.96 mM
- IC50 (KBM5-STI): 6.64 ± 0.18 mM
- IC50 (MYL-R): 8.17 ± 0.15 mM
- IC50 (hepatocyte): 12.9 ± 2.73 mM
- cytotoxic / antitumor activity on A549 low folate receptor-expressing cells (A549): strong cytotoxic activity
- cellular uptake (BV173 [3]): almost no cellular intake
- cell proliferation inhibitory capability on addition of an autophagy inhibitor (BV173 [4]): such an effect is absent
- cell proliferation inhibitory capability on addition of an autophagy inhibitor (K562 [5]): such an effect is absent
- survival in two-time administration model compared with one-time administration model ([6]; FIG. 14 compared with FIG. 13, FA-HP-β-CyD 3 mg/kg): an extension in survival was not observed
- P versus the vehicle group (survival) ([6]; administered two times, first and second week, FA-HP-β-CyD 3 mg/kg (FIG. 14)): 0.182
- P versus the vehicle group (survival) ([6]; single administration in the second week, FA-HP-β-CyD 3 mg/kg (FIG. 13)): 0.0746
